In patent EP0321849A2, “Method for the enzymatic hydrolysis of alpha-aminoadipinyl monoamino compounds” (HOECHST AKTIENGESELLSCHAFT, priority 1987, dated 1989):

Assays:
γ-GTP [1] = molecular target: T1, γ-GTP (Bacillus subtilis, UniProt P54422); experiment: Inhibition of γ-GTP by inhibitors (irreversible / reversible); type: biochemical; design: Das Enzym kommt in Mikroorganismen periplasmatisch und extrazellulär vor; endogenous in cells; host or cells: Bacteria cultured in nutrient medium (genera Pseudomonas, Proteus, Arthrobacter, Bacillus); preferred Bac. subtilis IFO 3025; details: in the presence of the substance; kind of inhibition (irreversible or reversible)
γ-GTP [2] = molecular target: T1, γ-GTP; experiment: Enzymatic hydrolysis of α-aminoadipinyl cephalosporins by γ-GTP enzyme concentrate (preparative conversion); type: biochemical, Bac. subtilis IFO 3025; design: Das so gewonnene Kulturfiltrat enthält 1350 U γ-GTP-Aktivität; endogenous in cells; host or cells: Bacillus subtilis IFO 3025 (natural producer); Culture filtrate, ammonium sulfate precipitation, DEAE-cellulose
Procedure: Analog Beispiel 1 wird eine Vorkultur mit Bac. subtilis IFO 3025 angezogen. 50 ml dieser Kultur dienen als Inokulum für 2 l Hauptkulturlösung in einem 5 l-Fermenter. Die Anzucht des Stammes erfolgt bei 34°C und einem Sauerstoffpartialdruck von 70 %. Die Bildung der γ-GTP wird photometrisch verfolgt und die Kultur bei maximalem Enzymtiter abgeerntet. Unter den gegebenen Bedingungen wird ein γ-GTP-Titer von 150 mU/ml Kulturlösung erreicht.
9 l Kulturlösung werden mittels Cross-Flow-Filtration (Ausschlußgrenze 300 000 Dalton) in Kulturfiltrat und Zellmasse getrennt. Das so gewonnene Kulturfiltrat enthält 1350 U γ-GTP-Aktivität.
Durch Zugabe von Ammoniumsulfat ad 70 % d. S. wird das Enzym gefällt und in einem 1/10 des Volumens wieder aufgenommen. Nach Dialyse gegen 20 mM Tris, pH 8,0, wird über eine DEAE-Cellulose Säule (DE 52, Whatman) das Enzym weiter gereinigt. Die aktiven Eluate werden vereinigt und konzentriert. Ein so gewonnenes γ-GTP-Präparat (mit ca. 25 U γ-GTP/ml) wird für die Umsetzungen verwendet.
Für eine präparative Umsetzung von Desacetyl-CPC wird folgender Ansatz gewählt: 100 µl Enzymkonzentrat, hergestellt nach Beispiel 3, und 100 µl 40 mM Desacetyl-CPC, gelöst in 20 mM Kaliumphosphatpuffer, pH 7,3 werden bei einer Temperatur von 33°C inkubiert. […]

[3] = substrate: N[C@@H](CCC(=O)Nc1ccc([N+](=O)[O-])cc1)C(=O)O; experiment: Km determination of γ-GTP with L-γ-Glutamylparanitroanilid as substrate; type: biochemical; details: other: substrate of γ-GTP, pH 8, 37.0 °C

Molecule: CC(=O)OCC1=C(C(=O)O)N2C(=O)[C@@H](N)[C@H]2SC1 [7-Aminocephalosporansäure]
- Hemmung der γ-GTP (γ-GTP [1]): reversible Hemmung

Molecule: [N-]=[N+]=CC(=O)OC[C@H](N)C(=O)O [Azaserin]
- Hemmung der γ-GTP (γ-GTP [1]): irreversibel gehemmt

Molecule: CC(=O)OCC1=C(C(=O)O)N2C(=O)[C@@H](NC(=O)CCC[C@@H](N)C(=O)O)[C@H]2SC1 [CPC, Cephalosporin C]
- 7-Aminocephalosporansäure released (γ-GTP [2]; incubation conditions as in Beispiel 4 (pH 7,3, 33°C)): 3%

Molecule: N[C@H](CCCC(=O)N[C@@H]1C(=O)N2C(C(=O)O)=C(CO)CS[C@H]12)C(=O)O [Desacetyl-CPC]
- Desacetyl-7-Aminocephalosporansäure formed (γ-GTP [2]; 100 µl enzyme concentrate + 100 µl 40 mM substrate in 20 mM potassium phosphate buffer pH 7,3, 33°C): ≤ 16%

Molecule: NC(=O)CI [Jodacetamid]
- Hemmung der γ-GTP (γ-GTP [1]): irreversibel gehemmt

Molecule: [Cu] [Kupfer]
- Hemmung der γ-GTP (γ-GTP [1]): reversible Hemmung

Molecule: [Hg] [Quecksilber]
- Hemmung der γ-GTP (γ-GTP [1]): reversible Hemmung

B1: γ-Glutamyltranspeptidase (γ-GTP) (Bacillus subtilis subsp. subtilis str. 168) (protein)
chain 1: DEYKQVDVGKDGMVATAHPLASEIGADVLKKGGNAIDAAVAIQFALNVTEPMMSGIGGGGFMMVYDGKTKDTTIIDSRERAPAGATPDMFLDENGKAIPFSERVTKGTAVGVPGTLKGLEEALDKWGTRSMKQLITPSIKLAEKGFPIDSVLAEAISDYQEKLSRTAAKDVFLPNGEPLKEGDTLIQKDLAKTFKLIRSKGTDAFYKGKFAKTLSDTVQDFGGSMTEKDLENYDITIDEPIWGDYQGYQIATTPPPSSGGIFLLQMLKILDHFNLSQYDVRSWEKYQLLAETMHLSYADRASYAGDPEFVNVPLKGLLHPDYIKERQQLINLDQVNKKPKAGDPWKYQEGSANYKQVEQPKDKVEGQ
chain 2: TTHFTVADRWGNVVSYTTTIEQLFGTGIMVPDYGVILNNELTDFDAIPGGANEVQPNKRPLSSMTPTILFKDDKPVLTVGSPGGATIISSVLQTILYHIEYGMELKAAVEEPRIYTNSMSSYRYEDGVPKDVLSKLNGMGHKFGTSPVDIGNVQSISIDHENGTFKGVADSSRNGAAIGINLKRK
notes: Das Enzym kommt in Mikroorganismen periplasmatisch und extrazellulär vor; endogenous in cells; host or cells: Bacteria cultured in nutrient medium (genera Pseudomonas, Proteus, Arthrobacter, Bacillus); preferred Bac. subtilis IFO 3025
- Km [3]: 17,8 µM
